The text below walks through data of paper PMC3372491, “Application of Consensus Scoring and Principal Component Analysis for Virtual Screening against β-Secretase (BACE-1)” (PLoS ONE, 2012).

The target in the experiment is T1, β-secretase (BACE-1) (Homo sapiens, UniProt P56817).
T1 construct: gene BACE1
In words: BACE-1 FRET enzymatic assay. The class given is biochemical.

T1 sequence (P56817 46-457): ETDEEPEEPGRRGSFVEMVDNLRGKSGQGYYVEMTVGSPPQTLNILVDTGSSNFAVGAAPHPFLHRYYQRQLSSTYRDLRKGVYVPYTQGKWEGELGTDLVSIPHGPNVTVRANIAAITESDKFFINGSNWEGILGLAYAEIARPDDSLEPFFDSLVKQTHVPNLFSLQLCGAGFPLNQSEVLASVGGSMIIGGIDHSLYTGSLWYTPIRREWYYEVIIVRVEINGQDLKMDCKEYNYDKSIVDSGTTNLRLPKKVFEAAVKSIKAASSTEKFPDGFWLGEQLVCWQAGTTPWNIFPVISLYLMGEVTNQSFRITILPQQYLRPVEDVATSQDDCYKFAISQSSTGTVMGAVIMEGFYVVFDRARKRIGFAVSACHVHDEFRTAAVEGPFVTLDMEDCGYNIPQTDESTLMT

Usually IC50 stands for the concentration needed to halve the response being measured. Low values mean inhibition by little substance, high ones a need for much substance. For the compound `O=C(NCc1ccccc1)[C@@H](O)[C@H](O)C(=O)NCc1ccccc1` [compound 2, 276065], the IC50 was found to be 85.3 µM.

As for `N[C@@H](CCCCNC(=O)OCc1ccccc1)C(=O)OCc1ccccc1` [compound 1, S450588], the 50% inhibitory concentration (IC50) turned out to be 51.6 µM.
